The values below come from patent US12357570B2, “Chemoembolization agents” (BRUIN BIOSCIENCES, INC., priority 2017, dated 2025).

A short description of series [1]: Loading of non-encapsulated drug on DC Beads (residual unloaded drug by HPLC). To be noted: room temperature. The series is classed as physicochemical. The protocol: A drug-loading solution was prepared by adding sterile water to a vial of doxorubicin hydrochloride powder (Pharmacia & Upjohn, Kalamazoo, MI) to produce a solution of the desired concentration (for the loading experiment 25 mg Doxorubicin salt was dissolved in 5 mL water. 0.043 mmol/5 mL=8.6 mM solution). 1 mL volume of beads was aspirated via syringe, purged of as much liquid as possible, then an aqueous solution Doxorubicin (5 mL, 5 mg/mL concentration) aspirated and mixed with beads. The mixture was dispensed into a sealed vial and left to load at room temperature without agitation and left for a time until the red coloration in the solution had diminished and the beads had taken on a red color. This time was dependent on drug loading solution concentration and bead size.
The extent of drug loading was calculated from the residual unloaded drug content determined by UV/visible HPLC with DAD detector at 220 and 254 nm (Agilent 1100 Series). Estimated uptake of Doxorubicin was approximately 90% loading after 25 hours, and approximately 99% loading after 91 hours.
Sunitinib was loaded to DC Beads® using a procedure similar to that for Example 6. Estimated uptake of Sunitinib was approximately 99% after 6 hours and >99.8% after 24 hours at room temperature.

For series [2] the following is noted: after a 24 hour period; previous observations; cited from earlier work.
The nature of series [3]: Elution of liposome-encapsulated drug from DC Beads with PBS pH 7.4 at 37° C. The series is classed as physicochemical. The settings on record: for Remaining drug to be eluted: after Fraction I (solvent-final). As for the experimental part: This was accomplished via a two-step process: 1) Sorafenib was made water-soluble by encapsulation into an encapsulating agent that is positively charged on its outer surface (cationic liposomes) and 2) association of a plurality of the loaded encapsulating agents so obtained onto microspheres (DC Beads®). In order to accomplish this, Sorafenib para-toluene sulfonate salt (9.1 mg), DOTAP (1,2-dioleoyl-3-trimethylammonium-propane chloride salt, 100 mg) and DOPC (1,2-dioleoyl-sn-glycero-3-phosphocholine, 101.1 mg) were dissolved in ethanol (0.5 mL) and this solution was added dropwise to a 10% trehalose solution (9 mL) under stirring. The resulting viscous emulsion was stirred at room temperature for 5 minutes and then filtered through a manual liposomal extruder using a 200 nm polycarbonate membrane. The resulting unilamellar liposomal solution was lyophilized overnight to yield a white solid, which was reconstituted in deionized water (1.82 mL) to yield a final Sorafenib concentration of 5 mg/mL. DC Beads® (2 mL, having about 200,000 beads with an average bead diameter of about 100-300 microns as measured by light scattering) were drained of as much liquid as possible and treated with the liposomal solution. The concentration of Sorafenib in the supernatant was measured over time by HPLC/MS. After approximately 46 hours, equilibrium was reached and loading of Sorafenib appeared to be approximately 52%. It is possible that saturation was reached and that more beads are needed to increase loading. For elution experiments, the liposomal solution with the DC Beads® was passed through a cotton filter, leaving the DC Beads® on the filter. […] Four 40 mL vials were collected and analyzed by HPLC/MS/MS to determine the concentration of Sorafenib in each sample. Ten 3 mL vials were collected and analyzed by HPLC/MS/MS to establish the drug elution kinetics for Sorafenib.
This was accomplished via a two-step process: 1) Regorafenib (4.7229 mg) was made water-soluble by encapsulation into an encapsulating agent that is positively charged on its outer surface (cationic liposomes) and 2) association of a plurality of the loaded encapsulating agents so obtained onto microspheres. In short, Regorafenib (6.9 mg), DOTAP (1,2-dioleoyl-3-trimethylammonium-propane chloride salt, 100 mg) and DOPC (1,2-dioleoyl-sn-glycero-3-phosphocholine, 101.1 mg) were dissolved in ethanol (0.5 mL) and this solution was added dropwise to a 10% trehalose solution (9 mL) under stirring. The resulting viscous emulsion was stirred at room temperature for 5 minutes and then filtered through a manual liposomal extruder using a 200 nm polycarbonate membrane. The resulting unilamellar liposomal solution was lyophilized overnight to yield a white solid, which was reconstituted in deionized water (1.8 mL) to yield a final Regorafenib concentration of 5 mg/mL. DC Beads® (2 mL) were drained of as much liquid as possible and treated with the liposomal solution. The concentration of Regorafenib in the supernatant was measured over time by HPLC/MS. After approximately 92 hours, equilibrium was reached and loading of Regorafenib appeared to be approximately 25%. For elution experiments, the liposomal solution with the DC Beads® was passed through a cotton filter, leaving the DC Beads® on the filter. […] Four 40 mL vials were collected and analyzed by HPLC/MS/MS to determine the concentration of […] in each sample.

For series [4] the following is noted: human, 400 mg twice daily, cited from earlier work.
The conditions of series [5]: cited from earlier work.
Series [6] in a line: Loading of liposome-encapsulated drug on DC Beads (supernatant HPLC/MS). The series is classed as physicochemical. To be noted: for loading on DC Beads: cationic liposomes DOTAP/DOPC; for amount loaded: start of elution, liposomal drug on DC Beads. As for the experimental part: This was accomplished via a two-step process: 1) Sorafenib was made water-soluble by encapsulation into an encapsulating agent that is positively charged on its outer surface (cationic liposomes) and 2) association of a plurality of the loaded encapsulating agents so obtained onto microspheres (DC Beads®). In order to accomplish this, Sorafenib para-toluene sulfonate salt (9.1 mg), DOTAP (1,2-dioleoyl-3-trimethylammonium-propane chloride salt, 100 mg) and DOPC (1,2-dioleoyl-sn-glycero-3-phosphocholine, 101.1 mg) were dissolved in ethanol (0.5 mL) and this solution was added dropwise to a 10% trehalose solution (9 mL) under stirring. The resulting viscous emulsion was stirred at room temperature for 5 minutes and then filtered through a manual liposomal extruder using a 200 nm polycarbonate membrane. The resulting unilamellar liposomal solution was lyophilized overnight to yield a white solid, which was reconstituted in deionized water (1.82 mL) to yield a final Sorafenib concentration of 5 mg/mL. DC Beads® (2 mL, having about 200,000 beads with an average bead diameter of about 100-300 microns as measured by light scattering) were drained of as much liquid as possible and treated with the liposomal solution. The concentration of Sorafenib in the supernatant was measured over time by HPLC/MS. After approximately 46 hours, equilibrium was reached and loading of Sorafenib appeared to be approximately 52%. It is possible that saturation was reached and that more beads are needed to increase loading. For elution experiments, the liposomal solution with the DC Beads® was passed through a cotton filter, leaving the DC Beads® on the filter. PBS ([…], pH 7.4) warmed to 37° C. was passed over the beads at 4 mL/min for 60 minutes. Four 40 mL vials were collected and analyzed by HPLC/MS/MS to determine the concentration of Sorafenib in each sample. Ten 3 mL vials were collected and analyzed by HPLC/MS/MS to establish the drug elution kinetics for Sorafenib.
This was accomplished via a two-step process: 1) Regorafenib (4.7229 mg) was made water-soluble by encapsulation into an encapsulating agent that is positively charged on its outer surface (cationic liposomes) and 2) association of a plurality of the loaded encapsulating agents so obtained onto microspheres. In short, Regorafenib (6.9 mg), DOTAP (1,2-dioleoyl-3-trimethylammonium-propane chloride salt, 100 mg) and DOPC (1,2-dioleoyl-sn-glycero-3-phosphocholine, 101.1 mg) were dissolved in ethanol (0.5 mL) and this solution was added dropwise to a 10% trehalose solution (9 mL) under stirring. […] The concentration of Regorafenib in the supernatant was measured over time by HPLC/MS. […] Four 40 mL vials were collected and analyzed by HPLC/MS/MS to determine the concentration of […] in each sample.

Where [7] appears, read: Fraction I (solvent-final), time 320 minutes.

The structures appear in SMILES notation. “Also recorded” adds a separate entry of the source.

For the compound `COc1cccc2c1C(=O)c1c(O)c3c(c(O)c1C2=O)C[C@@](O)(C(=O)CO)C[C@@H]3O[C@H]1C[C@H](N)[C@H](O)[C@H](C)O1` [Doxorubicin], the “Estimated uptake (loading) on DC Beads” value in series [1] (after 25 hours) is “approximately 90%”; in series [1] (after 91 hours), “approximately 99%”. In addition, the “fraction of drug eluted” value in series [2] is on record as “about 4%”.
`CNC(=O)c1cc(Oc2ccc(NC(=O)Nc3ccc(Cl)c(C(F)(F)F)c3)cc2)ccn1` [Sorafenib, 4-{4-[3-(4-chloro-3-trifluoro-phenyl)-ureido]-phenoxyl}-pyridine-2-carboxylic methylamine]: the “% eluted” value in series [3] (Fraction B, time 40 minutes) is on record as 65.4259%; in series [3] (Fraction C, time 80 minutes) it was 10.6714%; in series [3] (Fraction D, time 120 minutes) it was 0.6479%; in series [3] (Fraction E, time 160 minutes), 0.6924%; in series [3] (Fraction F, time 200 minutes), 0.1912%; in series [3] (Fraction G, time 240 minutes), 0.1188%. Further, the “% eluted” value was 0.00648% in series [3] (Fraction H, time 280 minutes) and 4.9292% in series [3] (setting [7]). Also, the Cumulative elution % in series [3] (Fraction B, time 40 minutes) turned out to be 65.4259%; in series [3] (Fraction C, time 80 minutes), 76.0973%; in series [3] (Fraction D, time 120 minutes) it was 76.7452%; in series [3] (Fraction E, time 160 minutes), 77.4376%; in series [3] (Fraction F, time 200 minutes) it was 77.6287%; in series [3] (Fraction G, time 240 minutes) it was 77.7475%. The Cumulative elution % in series [3] (Fraction H, time 280 minutes) was 77.754%; in series [3] (setting [7]) it was 82.68%. For the same compound, the amount eluted in series [3] (Fraction B, time 40 minutes) is listed as 3.09 mg; in series [3] (Fraction C, time 80 minutes), 0.504 mg; in series [3] (Fraction D, time 120 minutes), 0.0306 mg; in series [3] (Fraction E, time 160 minutes), 0.0327 mg; in series [3] (Fraction F, time 200 minutes) it was 0.00903 mg; in series [3] (Fraction G, time 240 minutes), 0.00561 mg. The amount eluted is given as 0.000306 mg in series [3] (Fraction H, time 280 minutes) and 0.2328 mg in series [3] (setting [7]). Further, the “Remaining drug to be eluted” value in series [3] turned out to be 0.8179 mg. The “concentration released in smaller increments thereafter” value in series [3] (after initial release) was 0.2 µM. Also, in series [3] (after the last elution time point), the “drug remained on the beads” value is given as “Approximately 17%”. Further, the concentration released initially in series [3] (initial release from beads) lay in the range of 4 to 20 µM. Besides, the “fraction of loaded drug eluted” value in series [3] (over 40 minutes) is on record as “approximately 2%”. The “mean t½” value in series [4] was 27.4 h. For the same compound, the Cmax in series [4] (read-out: Cmax in plasma) was roughly 11.6 µM. In series [5] (alcohol), the solubility in alcohol entry is “slightly soluble”. In addition, the “solubility in polyethylene glycol 400” value in series [5] (polyethylene glycol 400) is “fully soluble”. In series [5], the water solubility entry is “mostly insoluble; also recorded: very poor”. Moreover, the “loading on DC Beads” value in series [6] (equilibrium after approximately 46 hours) is on record as “approximately 52%”. In series [6], this compound registered an amount loaded of 4.7229 mg.
Regarding `CNC(=O)c1cc(Oc2ccc(NC(=O)Nc3ccc(Cl)c(C(F)(F)F)c3)c(F)c2)ccn1` [Regorafenib], the “% eluted” value in series [3] (Fraction B, time 40 minutes) came to 68.3963%; in series [3] (Fraction C, time 80 minutes), 2.3255%; in series [3] (Fraction D, time 120 minutes), 0.0109%; in series [3] (Fraction E, time 160 minutes) it was 0.00286%; in series [3] (Fraction F, time 200 minutes) it was 0.0017%; in series [3] (Fraction G, time 240 minutes), 0.0017%. Besides, the “% eluted” value in series [3] (Fraction H, time 280 minutes) was 0.0049%; in series [3] (setting [7]), 3.5384%. Also, the Cumulative elution % in series [3] (Fraction B, time 40 minutes) is 68.3963%; in series [3] (Fraction C, time 80 minutes), 70.7218%; in series [3] (Fraction D, time 120 minutes), 70.7327%; in series [3] (Fraction E, time 160 minutes) it was 70.7356%; in series [3] (Fraction F, time 200 minutes), 70.7373%; in series [3] (Fraction G, time 240 minutes), 70.739%. Further, the Cumulative elution % in series [3] (Fraction H, time 280 minutes) is 70.7439%; in series [3] (setting [7]), 74.2823%. Moreover, the amount eluted is listed as 1.5 mg in series [3] (Fraction B, time 40 minutes); 0.051 mg in series [3] (Fraction C, time 80 minutes); 0.00024 mg in series [3] (Fraction D, time 120 minutes); 0.0000628 mg in series [3] (Fraction E, time 160 minutes); 0.0000372 mg in series [3] (Fraction F, time 200 minutes); 0.0000364 mg in series [3] (Fraction G, time 240 minutes). The amount eluted worked out at 0.000108 mg in series [3] (Fraction H, time 280 minutes) and 0.0776 mg in series [3] (setting [7]). Besides, the “Remaining drug to be eluted” value in series [3] is on record as 0.5723 mg. The water solubility result in series [5] is given as “poor”. Also, in series [6] (equilibrium after approximately 92 hours), the “loading on DC Beads” value is listed as “approximately 25%”. For the same compound, the amount loaded in series [6] amounted to 2.1931 mg.
